Data reported in patent publication EP2915814A2, “Crystalline salts of sitagliptin” (priority 2008, dated 2010).
Counter-ions that a name gives are not always drawn. Marks after values point to notes of the source that are not given here.

Columns and labels:
[1] = Hygroscopicity studies (water content after storage at 43 %, 75 % and 93 % relative humidity); type: physicochemical; conditions: for change during the hygroscopicity studies: 43 %, 75 % and 93 % relative humidity, confirmed by DSC of samples kept at 93 % relative humidity for 2 weeks; for Initial water content: initial sample, before humidity storage
Description: The salts of the present invention and the free base were studied under three different humidity conditions (43 % relative humidity, 75 % relative humidity, and 93 % relative humidity).

[2] = Solubility in water / aqueous solution; type: physicochemical; conditions: compared to other known salts of sitagliptin
[3] = Stability studies (storage at 60 °C in closed bottles or at 40 °C / 75 % RH in an open bottle; related substances by HPLC); conditions: for stability (degradation, related substances by HPLC): closed bottle; for Initial Related Substances: before storage
[4] = solid; for Related Substances 4 w 40°C/75 % RH closed / Related Substances 4 w 40°C/75 % RH open / Related Substances 4 w 60°C Closed bottle: 672 h; for Related Substances 12 weeks 40°C/75 % RH closed bottle / Related Substances 12 weeks 40°C/75 % RH open bottle: 2016 h; for Related Substances 2 W 40°C/75 % RH open / Related Substances 2 W 60°C closed: 336 h; for Related Substances 2 W 60°C closed / Related Substances 4 w 60°C Closed bottle: closed bottle
pH of aqueous solution = type: physicochemical; conditions: 2 % aqueous solution

| Compound | change during the hygroscopicity studies ([1]; listed as sitagliptin sulfate (non solvated)) | solubility in water [2] | stability (degradation, related substances by HPLC) ([3]; four weeks at 60 °C, listed as sitagliptin hemisulphate) | stability (degradation, related substances by HPLC) ([3]; two weeks at 60 °C) | Hygroscopicity (water content) ([1]; 2 weeks 43 % rh) [%] | Hygroscopicity (water content) ([1]; 2 weeks 75 % rh) [%] | Hygroscopicity (water content) ([1]; 2 weeks 93 % rh) | change during the hygroscopicity studies [1] | Initial water content [1] [%] | Related Substances 4 w 40°C/75 % RH closed [4] [%] | Related Substances 12 weeks 40°C/75 % RH closed bottle [4] [%] | Related Substances 2 W 40°C/75 % RH open [4] [%] | Related Substances 4 w 40°C/75 % RH open [4] [%] | Related Substances 12 weeks 40°C/75 % RH open bottle [4] [%] | Related Substances 2 W 60°C closed [4] [%] | Related Substances 4 w 60°C Closed bottle [4] [%] | Initial Related Substances [3] [%] | hygroscopicity ([1]; prolonged storage at 93 % relative humidity) | pH (pH of aqueous solution) | stability (degradation, related substances by HPLC) ([3]; four weeks at 60 °C) |
| --- | --- | --- | --- | --- | --- | --- | --- | --- | --- | --- | --- | --- | --- | --- | --- | --- | --- | --- | --- | --- |
| N[C@@H](CC(=O)N1CCn2c(nnc2C(F)(F)F)C1)Cc1cc(F)c(F)cc1F [sulfate (non solvated), Sitagliptin Sulfate Form II] | increase in water content corresponding to conversion of hemihydrate to dihydrate | very high solubility in water | excellent stability | stable |  |  |  |  |  |  |  |  |  |  |  |  |  |  |  |  |
| Sitagliptin Fumarate Form I [D:Fumarate I] |  |  |  |  | 1.058 | 1.078 | 1.168% | did not show much change | 0.89 | 0.07 | 0.13 | 0.01 | 0.06 | 0.11 | 0.01 | 0.03 | 0 |  |  |  |
| Sitagliptin succinate Form I [F: Succinate I] |  |  |  |  | 1.36 | 1.78 | 19.58** % |  | 0.90 | 0.29 | 0.23 | 0.13 | 0.25 | 0.16 | 0.30 | 0.58 | 0.14 |  |  |  |
| N[C@@H](CC(=O)N1CCn2c(nnc2C(F)(F)F)C1)Cc1cc(F)c(F)cc1F [sitagliptin hydrochloride, Sitagliptin Hydrochloride Form II] |  |  |  |  |  |  |  |  |  |  |  |  |  |  |  |  |  | not hygroscopic | 5.8 ± 0.1 | excellent stability |
